Assay results reported in ChEMBL document CHEMBL1124170, “N2-phenyldeoxyguanosine: a novel selective inhibitor of herpes simplex thymidine kinase” (J Med Chem, 1988).

Key:
[1] = molecular target: T1, Thymidine kinase (Human herpesvirus 1 (strain SC16) (HHV-1) (Human herpes simplex virus1), UniProt P06479); experiment: Inhibitory activity against Herpes simplex virus type-I specific thymidine kinase; parameters: species or system Human alphaherpesvirus 1 strain SC16
T1 sequence (P06479 whole entry): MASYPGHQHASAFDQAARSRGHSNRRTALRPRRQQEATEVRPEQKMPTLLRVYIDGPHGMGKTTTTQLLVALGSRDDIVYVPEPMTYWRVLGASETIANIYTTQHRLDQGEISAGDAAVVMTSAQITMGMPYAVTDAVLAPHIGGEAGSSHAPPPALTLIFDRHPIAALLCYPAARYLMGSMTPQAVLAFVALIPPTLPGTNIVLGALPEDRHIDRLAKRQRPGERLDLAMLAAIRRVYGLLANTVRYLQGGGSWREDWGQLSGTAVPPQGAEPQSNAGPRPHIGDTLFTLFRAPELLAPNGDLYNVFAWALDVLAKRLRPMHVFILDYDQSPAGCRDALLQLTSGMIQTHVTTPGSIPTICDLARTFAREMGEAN

[2] = tested on: Thymidine kinase (Human alphaherpesvirus 1); experiment: Inhibitory activity against Herpes simplex virus type-I specific thymidine kinase; No inhibition detected at 1 mM concentration

| SMILES | EC50 [1] [µM] | EC50 [2] |
| --- | --- | --- |
| CCCCc1ccc(Nc2nc3c(ncn3[C@H]3C[C@H](O)[C@@H](CO)O3)c(=O)[nH]2)cc1 | 25 |  |
| CCCCc1ccc(Nc2nc3c(ncn3COCCO)c(=O)[nH]2)cc1 | 140 |  |
| CCCCc1ccc(Nc2nc3c(ncn3[C@H]3O[C@@H](CO)[C@H](O)[C@@H]3O)c(=O)[nH]2)cc1 | 75 |  |
| CCCCc1ccc(Nc2nc(N)c3ncn([C@H]4C[C@H](O)[C@@H](CO)O4)c3n2)cc1 |  | Not Active |
| CCc1cccc(Nc2nc3nc[nH]c3c(=O)[nH]2)c1 | 3 |  |
| CCCCc1ccc(NC2=NC(=O)C3N=CN([C@H]4C[C@H](O)[C@@H](COP(=O)(O)O)O4)C3=N2)cc1 (stereo not given in full) | 400 |  |
| Cc1ccc(Nc2nc3nc[nH]c3c(=O)[nH]2)cc1 | 50 |  |
| Cc1ccc(Nc2nc3c(ncn3C3O[C@@H](CO)[C@H](O)[C@@H]3O)c(=O)[nH]2)cc1 (stereo not given in full) | 30 |  |
| O=C1N=C(Nc2ccccc2)N=C2C1N=CN2[C@H]1C[C@H](O)[C@@H](COP(=O)(O)O)O1 (stereo not given in full) | 3 |  |
| CCCCc1ccc(Nc2nc3nc[nH]c3c(=O)[nH]2)cc1 | 50 |  |
